Source: patent publication US20160264570A1, “METHOD OF BLOCKING TRANSMISSION OF MALARIAL PARASITE” (THE UNITED STATES OF AMERICA, AS REPRESENTED BY THE …, priority 2013, published 2016)
Like-named read-outs stand apart in the source and are kept apart here.

Tests used:
[1] = tested on: P. falciparum strain 3D7 gametocytes; assay: alamarBlue gametocyte viability assay, strain 3D7
[2] = tested on: Asexual parasites of P. falciparum strain 3D7; assay: SYBR Green viability assay on asexual parasites; format: cell-based, Plasmodium falciparum; conditions: read-out: Activity against asexual parasites EC50
[3] = read-out: Gametocytocidal activity EC50, Table 6
[4] = Plasmodium falciparum, 3D7, read-out: Gametocytocidal activity EC50, Table 7
[5] = Plasmodium falciparum, 3D7, Table 7

| EC50 ([2]; Table 6) [nM] | Compound | EC50 [1, 3] [nM] | also measured |
| --- | --- | --- | --- |
| 802 | O=c1ccc2cnc3ccc(-c4ccc5c(c4)OCO5)cc3c2n1-c1cccc(C(F)(F)F)c1 | 3130 | – |
| 113 | O=c1ccc2cnc3ccc(-c4ccccc4)cc3c2n1-c1cccc(C(F)(F)F)c1 | 627 | – |
| 3590 | O=c1ccc2cnc3ccc(-c4cncc(Cl)c4)cc3c2n1-c1cccc(C(F)(F)F)c1 | 8800 | – |
| 92 | O=c1ccc2cnc3ccc(-c4ccncc4)cc3c2n1-c1cccc(C(F)(F)F)c1 | 246 | – |
| 1340 | Nc1ccc(-c2ccc3ncc4ccc(=O)n(C5CCOCC5)c4c3c2)cn1 | 41 | – |
| 560 | Nc1ccc(-c2ccc3ncc4ccc(=O)n(C5CC5)c4c3c2)cn1 | 215 | – |
| 352 | CC(=O)c1cccc(-c2ccc3ncc4ccc(=O)n(-c5cccc(C(F)(F)F)c5)c4c3c2)c1 | 1240 | – |
| 4200 | O=c1ccc2cnc3ccc(-c4cccc(C(F)(F)F)c4)cc3c2n1-c1cccc(C(F)(F)F)c1 | 3380 | – |
| 33 | Cc1ccc(-c2ccc3ncc4ccc(=O)n(-c5cccc(C(F)(F)F)c5)c4c3c2)cn1 | 65 | – |
| 64 | O=c1ccc2cnc3ccc(-c4ccc5[nH]ncc5c4)cc3c2n1-c1cccc(C(F)(F)F)c1 | 74 | – |
| 475 | O=c1ccc2cnc3ccc(-c4cncnc4)cc3c2n1-c1cccc(C(F)(F)F)c1 | 942 | – |
| – | Nc1cccc(-c2ccc3ncc4[nH]c(=O)n(-c5cccc(C(F)(F)F)c5)c4c3c2)c1 | – | EC50 [1, 4]: 531 nM; EC50 [2, 5]: 137 nM |
| 12000 | O=C(c1ccc(-c2ccc3ncc4ccc(=O)n(-c5cccc(C(F)(F)F)c5)c4c3c2)cc1)N1CCOCC1 | 22400 | – |
| 1130 | O=C1NCCc2cc(-c3ccc4ncc5ccc(=O)n(-c6cccc(C(F)(F)F)c6)c5c4c3)ccc21 | 3170 | – |
| – | CCc1cc2cnc3ccc(-c4ccc(N)nc4)cc3c2n(-c2cccc(C(F)(F)F)c2)c1=O | – | EC50 ([1]; Plasmodium falciparum, 3D7, read-out: Gametocytocidal activity EC50, Table 8): 136 nM; EC50 ([2]; Plasmodium falciparum, 3D7, Table 8): 260 nM |
| – | O=c1[nH]c2cnc3ccc(-c4cccnc4)cc3c2n1-c1cccc(C(F)(F)F)c1 | – | EC50 [1, 4]: 5570 nM; EC50 [2, 5]: 1400 nM |
| 128 | NS(=O)(=O)c1cccc(-c2ccc3ncc4ccc(=O)n(-c5cccc(C(F)(F)F)c5)c4c3c2)c1 | 342 | – |
| – | CC(=O)Nc1ccc(-c2ccc3ncc4[nH]c(=O)n(-c5cccc(C(F)(F)F)c5)c4c3c2)cn1 | – | EC50 [1, 4]: 123 nM; EC50 [2, 5]: 35 nM |
| 6440 | Nc1ccc(-c2ccc3ncc4ccc(=O)n(CC5CCNCC5)c4c3c2)cn1 | 11500 | – |
| – | Cn1c(=O)n(-c2cccc(C(F)(F)F)c2)c2c3cc(-c4cnc(N)nc4)ccc3ncc21 | – | EC50 [1, 4]: 31 nM; EC50 [2, 5]: 7 nM |
| 191 | O=c1ccc2cnc3ccc(-c4ccc5[nH]ccc5c4)cc3c2n1-c1cccc(C(F)(F)F)c1 | 325 | – |
| 1130 | O=C1CCc2cc(-c3ccc4ncc5ccc(=O)n(-c6cccc(C(F)(F)F)c6)c5c4c3)ccc2N1 | 3170 | – |
| 372 | Cc1ccc(-c2ccc3ncc4ccc(=O)n(-c5cccc(C(F)(F)F)c5)c4c3c2)cc1 | 794 | – |
| – | Cn1c(=O)n(-c2cccc(C(F)(F)F)c2)c2c3cc(-c4cccc(C#N)c4)ccc3ncc21 [drawing 462] | – | EC50 ([1]; read-out: Gametocytocidal activity EC50, Table 7): 314 nM; EC50 ([2]; Table 7): 59 nM |
| 44 | Cc1ccc(C(F)(F)F)cc1-n1c(=O)ccc2cnc3ccc(-c4ccc(N)nc4)cc3c21 | 65 | – |

| Compound | EC50 ([2]; Table 6) [nM] | EC50 [1, 3] [nM] | also measured |
| --- | --- | --- | --- |
| Nc1ccc(-c2ccc3ncc4ccc(=O)n(-c5cccc(Cl)c5)c4c3c2)cn1 | 10 | 18 | – |
| Nc1ccc(-c2ccc3ncc4ccc(=O)n(-c5cccc(Oc6ccccc6)c5)c4c3c2)cn1 | 1670 | 2430 | – |
| Nc1ccc(-c2ccc3ncc4ccc(=O)n(-c5cccc(C(F)(F)F)c5)c4c3c2)cn1 [drawing 333] | 6 | 18 | – |
| N#Cc1cccc(-n2c(=O)ccc3cnc4ccc(-c5ccc(N)nc5)cc4c32)c1 | 12 | 23 | – |
| O=c1ccc2cnc3ccc(C4=CCNCC4)cc3c2n1-c1cccc(C(F)(F)F)c1 | 15700 | 18400 | – |
